Assay results from patent US20120201868A1, “TREATMENT AND PREVENTION OF HIV INFECTION” (priority 2009, published 2012).
Values joined by “and” are separate entries in the source; they are usually repeats but may differ in a detail not shown here. Identical values can stand only once. Like-named read-outs stand apart in the source and are kept apart here.

Legend:
[1] = tested on: wild type HIV as well as mutated variants; details: in words; cited from earlier work
[2] = Plasma kinetics after intravenous injection of brecanavir solution in rats; assay type: in vivo; details: for clearance / AUC(0-t): rat, plasma, iv
Experimental: FIG. 1: Individual plasma concentration (ng/ml) versus time profiles following intravenous dosing of a solution of brecanavir in rats at 2 mg/kg.
Brecanavir was injected intraveneously as a 1 mg/ml solution (PEG400/saline 70:30) in rats (n=3) to determine the plasma kinetics of brecanavir in these animals. Plasma samples were collected from each of the rats at selected time points after administration; samples were analyzed for brecanavir concentrations with LC/MS. (See FIG. 1.)

[3] = in vivo, po; cited from earlier work
[4] = Plasma kinetics after single subcutaneous injection of brecanavir solution in rats; assay type: in vivo, Sprague-Dawley rats; details: for bioavailability: s.c. solution, read-out: average absolute bioavailability (F)
Experimental: FIG. 2: Individual and mean plasma concentrations of brecanavir following single subcutaneous injection of a brecanavir solution to rats at 16 (Δ) and 56 mg/kg (∘).
Sprague-Dawley rats (Crl:CD® (SD)IGS) of 200-300 g were injected once subcutaneously with an aqueous solution of brecanavir at 16 (n=4) and at 56 (n=4) mg/kg. The solution was prepared one day before dose administration; brecanavir was formulated in an aqueous 30% (w/v) DMA/50% (w/v) PEG400 solution at 35 mg/ml. The ingredients of the solution were: brecanavir, DMA 30% (w/v), PEG 400 50% (w/v) and pyrogenic free water. The content of brecanavir in the formulation was checked using LC-UV. The concentration of brecanavir in the formulation was 35 mg/ml.
Blood samples (0.3 ml on EDTA) were collected from the rats via the tail vein at 1, 2, 4, 7 and 24 h and further at 3, 4, 8, 14, 29, 42 and 56 days after dosing. Plasma samples were analyzed for brecanavir with a qualified research method on LC/MS/MS. Plasma concentrations were plotted as a function of time after dosing (FIG. 2). Pharmacokinetic parameters were calculated using WinNonlin software. Subcutaneous injection of an aqueous solution of brecanavir in rats produced an extended release pharmacokinetic profile with duration of at least 8 weeks (FIG. 2).

[5] = individual rats, i.v. solution, 2 mg/kg
[6] = mean of n=3 rats, i.v. solution, 2 mg/kg
[7] = 2 mg/kg, mean of n=3 rats, i.v. solution
[8] = individual rats, single s.c. solution, 16 mg/kg
[9] = individual rats, single s.c. solution, 56 mg/kg

Cc1nc(COc2ccc(C[C@H](NC(=O)O[C@H]3CO[C@H]4OCC[C@H]43)[C@H](O)CN(CC(C)C)S(=O)(=O)c3ccc4c(c3)OCO4)cc2)cs1 [brecanavir, [(3R,3aS,6aR)-2,3,3a,4,5,6a-hexahydro-furo[5,4-b]furan-3-yl] N-[(2S,3R)-4-(1,3-benzodioxol-5-ylsulfonyl-(2-methylpropyl)-amino)-3-hydroxy-1-[4-[(2-methyl-1,3-thiazol-4-yl)methoxy]phenyl]butan-2-yl]-carbamate]
activity against wild type HIV and mutated variants [1]: pronounced activity
AUClast ([2]; individual rats, i.v. solution (PEG400/saline 70:30, 1 mg/ml), 2 mg/kg): 1066 ng·h/mL and 1149 ng·h/mL
Cl [2, 5]: 30 mL/min/kg and 28.3 mL/min/kg
Vc [2, 5]: 0.70 L/kg and 0.46 L/kg and 0.52 L/kg
t1/2β [2, 5]: 2.3 h and 1.5 h (2×)
Vc [2, 6]: 0.56 L/kg
t1/2β [2, 6]: 1.8 h
clearance ([2]; 2 mg/kg, individual rats, i.v. solution): 23.3 mL/min/kg
AUC(0-t) ([2]; 2 mg/kg, individual rats, i.v. solution (PEG400/saline 70:30, 1 mg/ml), 2 mg/kg): 1370 ng·h/mL
AUC(0-t) [2, 7]: 1200 ng·h/mL
clearance [2, 7]: 28.3 mL/min/kg
distribution volume ([2]; rats, i.v. injection, in words): moderate to small distribution volume
plasma clearance ([2]; rats, i.v. injection, in words): moderate plasma clearance
brecanavir exposures [3]: insufficient to inhibit PI-resistant virus
AUC(0-t) ([4]; Sprague-Dawley (Crl:CD(SD)IGS), rat, plasma, sc, 16 mg/kg, individual rats, single s.c. solution, 16 mg/kg): 6500 ng·h/mL
AUC(0-t) ([4]; Sprague-Dawley (Crl:CD(SD)IGS), rat, plasma, sc, 16 mg/kg, mean of n=4 rats, single s.c. solution, 16 mg/kg): 8720 ng·h/mL
Cmax ([4]; Sprague-Dawley (Crl:CD(SD)IGS), rat, plasma, sc, 16 mg/kg, mean of n=4 rats, single s.c. solution, 16 mg/kg, read-out: Cmax): 369 ng/mL
AUC(0-t) ([4]; Sprague-Dawley (Crl:CD(SD)IGS), rat, plasma, sc, 56 mg/kg, individual rats, single s.c. solution, 56 mg/kg): 29900 ng·h/mL
AUC(0-t) ([4]; Sprague-Dawley (Crl:CD(SD)IGS), rat, plasma, sc, 56 mg/kg, mean of n=4 rats, single s.c. solution, 56 mg/kg): 21700 ng·h/mL
Cmax ([4]; Sprague-Dawley (Crl:CD(SD)IGS), rat, plasma, sc, 56 mg/kg, mean of n=4 rats, single s.c. solution, 56 mg/kg, read-out: Cmax): 322 ng/mL
bioavailability ([4]; Sprague-Dawley (Crl:CD(SD)IGS), rat, plasma, sc, rats, 16 mg/kg): 91%
bioavailability ([4]; Sprague-Dawley (Crl:CD(SD)IGS), rat, plasma, sc, rats, 56 mg/kg): 66%
Cmax ([4]; individual rats, single s.c. solution (30% DMA/50% PEG400, 35 mg/ml), 16 mg/kg): 273 ng/mL and 289 ng/mL and 591 ng/mL and 234 ng/mL
AUClast [4, 8]: 9630 ng·h/mL and 9291 ng·h/mL and 9448 ng·h/mL
t1/2λz [4, 8]: 10.9 days and 5.58 days and 22.3 days and 17 days
AUClast [4, 9]: 17602 ng·h/mL and 24284 ng·h/mL and 15221 ng·h/mL
Cmax [4, 9]: 360 ng/mL and 204 ng/mL and 417 ng/mL and 305 ng/mL
t1/2λz [4, 9]: 53 days and 16.2 days and 19.2 days and 44.67 days
t1/2λz ([4]; mean of n=4 rats, single s.c. solution, 16 mg/kg): 14 days
t1/2λz ([4]; mean of n=4 rats, single s.c. solution, 56 mg/kg): 33.2 days
duration of extended release pharmacokinetic profile ([4]; rats, s.c. aqueous solution): at least 8 weeks
absorption into the systemic circulation ([4]; rats, s.c. injection of a high dose solution, in words): very slow absorption
